Test results as given in PMC6465078 (Molecular pharmaceutics, 2018).
Structures can show the parent of a compound that is named as a salt. Each block holds one compound with its values, some of them ahead of it.

Columns and labels:
OSTα/β [1] = target: T1, OSTα/β (Homo sapiens, UniProt Q86UW1); experiment: Inhibition of OSTα/β-mediated DHEAS uptake in OSTα/β-overexpressing Flp-In 293; type: cell-based; settings: for Inhibition of OSTα/β-mediated DHEAS uptake (screening): Method 1 (10 min preincubation), test compound 100 µM; for Inhibition of OSTα/β-mediated DHEAS uptake: inhibitor 100 µM, DHEAS 20 µM; for Maximal inhibition of OSTα/β-mediated DHEAS uptake: Method 1, up to 200 µM inhibitor
T1 sequence (Q86UW1 1-340): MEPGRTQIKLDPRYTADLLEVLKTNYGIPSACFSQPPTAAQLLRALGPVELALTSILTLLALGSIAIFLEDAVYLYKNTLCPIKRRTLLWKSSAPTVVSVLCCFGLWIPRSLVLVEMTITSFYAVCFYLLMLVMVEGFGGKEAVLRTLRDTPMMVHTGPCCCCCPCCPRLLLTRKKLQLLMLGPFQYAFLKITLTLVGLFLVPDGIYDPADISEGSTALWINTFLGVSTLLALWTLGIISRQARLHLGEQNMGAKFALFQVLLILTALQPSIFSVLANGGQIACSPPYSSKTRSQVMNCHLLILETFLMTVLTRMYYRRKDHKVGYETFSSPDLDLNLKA
T1 sequence (Q86UW2 1-128 partner): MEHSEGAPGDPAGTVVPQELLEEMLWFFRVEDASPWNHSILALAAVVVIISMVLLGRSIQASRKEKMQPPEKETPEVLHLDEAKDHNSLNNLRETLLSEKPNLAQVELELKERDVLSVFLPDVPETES

OSTα/β [2] = target: T1, OSTα/β; experiment: Inhibition of OSTα/β-mediated taurocholate; type: cell-based; settings: for Inhibition of OSTα/β-mediated TCA uptake (statistical significance): Methods 1-3, method not specified; for inhibition at 100 µM: read-out: Inhibition of OSTα/β-mediated TCA uptake
[3] = cited from earlier work
OSTα/β [4] = settings: cited from earlier work
OSTα/β [5] = settings: single concentration of 100–1000 μM; cited from earlier work
OSTα/β [6] = target: T1, OSTα/β; settings: cell line ectopically expressing human OSTα/β; cited from earlier work
OSTα/β [7] = target: T1, OSTα/β; experiment: Inhibition of OSTα/β-mediated digoxin uptake in OSTab cells; type: cell-based; settings: read-out: Inhibition of OSTα/β-mediated digoxin uptake
ABCC3 = settings: cited from earlier work
ABCC4 = settings: cited from earlier work
[8] = cited from earlier work; remark: listed apart in the source
ABCB11 = settings: cited from earlier work
[9] = Concentration in hepatocyte cultures; type: in vitro ADME; settings: equivalent of ~700 ng/mg protein
[10] = Flp-In-293, read-out: Inhibition of OSTα/β-mediated DHEAS uptake
[11] = Flp-In-293, read-out: Inhibition of OSTα/β-mediated DHEAS uptake (screening)
[12] = Method 2 (co-incubation only), 30 s uptake

- Inhibition of OSTα/β-mediated DHEAS uptake (screening) (OSTα/β [1]; DHEAS 4 µM, 30 s uptake): novel OSTα/β inhibitors
SMILES: Cc1c(C)c2c(c(C)c1O)CCC(C)(COc1ccc(CC3SC(=O)NC3=O)cc1)O2 (centres unmarked) [troglitazone]
- IC50 for inhibition of OSTα/β-mediated DHEAS uptake (OSTα/β [1]; Method 1, 0.125–200 µM inhibitor, DHEAS 4 µM, 30 s uptake): did not yield a consistent inhibition curve

- inhibition at 100 µM (OSTα/β [1]; [10]): ~20%
- inhibition at 100 µM (OSTα/β [1]; [11]): 5 to 23%
- Inhibition of OSTα/β-mediated DHEAS uptake (OSTα/β [1]; [12]): no inhibition
- Inhibition of OSTα/β-mediated TCA uptake (statistical significance) (OSTα/β [2]; inhibitor 100 µM, TCA 20 µM): did not reach statistical significance
SMILES: COc1ccc2c(c1)c(CC(=O)O)c(C)n2C(=O)c1ccc(Cl)cc1 [indomethacin]

- inhibition at 100 µM (OSTα/β [1]; [11]): 35 to 64%
- Maximal inhibition of OSTα/β-mediated DHEAS uptake (OSTα/β [1]; DHEAS 4 µM): less than 50%
SMILES: C#C[C@]1(OC(C)=O)CC[C@H]2[C@@H]3CCC4=CC(=NO)CC[C@@H]4[C@H]3CC[C@@]21CC (mixture of isomers) [norgestimate]
- Associated cases of DILI [3]: more than 100 cases

SMILES: O=C(O)[C@H]1/C(=C/CO)O[C@@H]2CC(=O)N21 [clavulanic acid]
- Inhibition of OSTα/β-mediated DHEAS uptake (screening) (OSTα/β [1]; DHEAS 4 µM, 30 s uptake): decreased
- Associated cases of DILI [3]: more than 100 cases

- Inhibition of OSTα/β-mediated DHEAS uptake (screening) (OSTα/β [1]; DHEAS 4 µM, 30 s uptake): did not inhibit OSTα/β
SMILES: CC(C)c1nc(N(C)S(C)(=O)=O)nc(-c2ccc(F)cc2)c1/C=C/[C@@H](O)C[C@@H](O)CC(=O)O [rosuvastatin]

SMILES: CC(C)/N=c1\cc2n(-c3ccc(Cl)cc3)c3ccccc3nc-2cc1Nc1ccc(Cl)cc1 [clofazimine]
- OSTα/β inhibitor identification in screen of 1,280 FDA-approved drugs (OSTα/β [4]): OSTα/β inhibitor

- inhibition at 100 µM (OSTα/β [1]; [11]): 5 to 23%
SMILES: CCCN(CCC)S(=O)(=O)c1ccc(C(=O)O)cc1 [probenecid]

- Inhibition of OSTα/β-mediated DHEAS uptake (screening) (OSTα/β [1]; DHEAS 4 µM, 30 s uptake): could not be reproduced
SMILES: O=C1[C@H](CC[C@H](O)c2ccc(F)cc2)[C@@H](c2ccc(O)cc2)N1c1ccc(F)cc1 [ezetimibe]

SMILES: C[C@H](CCC(=O)NCCS(=O)(=O)O)[C@H]1CC[C@H]2[C@@H]3CC[C@@H]4C[C@H](OS(=O)(=O)O)CC[C@]4(C)[C@H]3CC[C@]12C [TLCAS, taurolithocholic acid sulfate]
- Inhibition of OSTα/β-mediated TCA and ES uptake (OSTα/β [5]): inhibited
- Stimulation of OSTα/β-mediated TCA uptake (OSTα/β [2]; Method 2 (co-incubation only), 100 µM, TCA 20 µM): ~ 25%
- Inhibition of OSTα/β-mediated TCA uptake (statistical significance) (OSTα/β [2]; inhibitor 100 µM, TCA 20 µM): did not reach statistical significance

- inhibition at 100 µM (OSTα/β [1]; [10]): ~20%
- Inhibition of OSTα/β-mediated DHEAS uptake (OSTα/β [1]; [12]): no inhibition
- inhibition at 100 µM (OSTα/β [2]): ~20%
SMILES: CC(=O)S[C@@H]1CC2=CC(=O)CC[C@]2(C)[C@H]2CC[C@@]3(C)[C@@H](CC[C@@]34CCC(=O)O4)[C@H]12 [spironolactone]
- Inhibition of OSTα/β-mediated TCA and ES uptake (OSTα/β [5]): inhibited

SMILES: O=C1OC(c2ccc(O)c(S(=O)(=O)O)c2)(c2ccc(O)c(S(=O)(=O)O)c2)c2c(Br)c(Br)c(Br)c(Br)c21 [sulfobromophthalein]
- inhibition at 100 µM (OSTα/β [1]; [11]): 5 to 23%

SMILES: C[C@H]1O[C@@H](O[C@H]2[C@@H](O)C[C@H](O[C@H]3[C@@H](O)C[C@H](O[C@H]4CC[C@@]5(C)[C@H](CC[C@@H]6[C@@H]5C[C@@H](O)[C@]5(C)[C@@H](C7=CC(=O)OC7)CC[C@]65O)C4)O[C@@H]3C)O[C@@H]2C)C[C@H](O)[C@@H]1O [digoxin]
- inhibition at 100 µM (OSTα/β [1]; [11]): 5 to 23%

- inhibition at 100 µM (OSTα/β [1]; [11]): 71%
- Inhibition of OSTα/β-mediated DHEAS uptake (OSTα/β [1]; Method 1 (10 min preincubation only), 30 s uptake): inhibited DHEAS uptake
- Inhibition of OSTα/β-mediated TCA uptake (OSTα/β [2]; Method 2 (co-incubation only), inhibitor 100 µM, TCA 20 µM, 30 s uptake): > 70%
- inhibition at 100 µM (OSTα/β [2]): > 70%
- inhibition at 100 µM (OSTα/β [7]): 90%
SMILES: CCc1c(Cl)c(O)c(Cl)c(O)c1C(=O)O[C@H]1[C@H](O)[C@H](OC)[C@H](OC/C2=C\C=C\C[C@H](O)/C(C)=C/[C@H](CC)[C@@H](O[C@@H]3OC(C)(C)[C@@H](OC(=O)C(C)C)[C@H](O)[C@@H]3O)/C(C)=C/C(C)=C/C[C@@H]([C@@H](C)O)OC2=O)O[C@@H]1C [fidaxomicin]
- Inhibition of OSTα/β-mediated TCA transport (OSTα/β [6]): inhibited
- Inhibition of ABCC3 (ABCC3): inhibit

- Inhibition of OSTα/β-mediated DHEAS uptake (screening) (OSTα/β [1]; DHEAS 4 µM, 30 s uptake): decreased
SMILES: CC1(C)S[C@@H]2[C@H](NC(=O)[C@H](N)c3ccc(O)cc3)C(=O)N2[C@H]1C(=O)O [amoxicillin]
- Associated cases of DILI [3]: more than 100 cases

- inhibition at 100 µM (OSTα/β [1]; [11]): ~21%
SMILES: CC[C@H](C)C(=O)O[C@H]1C[C@@H](C)C=C2C=C[C@H](C)[C@H](CC[C@@H]3C[C@@H](O)CC(=O)O3)[C@H]21 [lovastatin]

- Concentration in hepatocyte cultures, molar equivalent [9]: ~ 190 µM
SMILES: Cc1c(C)c2c(c(C)c1OS(=O)(=O)O)CCC(C)(COc1ccc(CC3SC(=O)NC3=O)cc1)O2 (centres unmarked) [troglitazone sulfate]
- Inhibition of ABCC4 (ABCC4): inhibits
- Inhibition of OSTα/β-mediated TCA transport (OSTα/β [6]): inhibited
- Concentration in hepatocyte cultures [8]: ~ 700 ng/mg protein
- Inhibition of ABCB11 (ABCB11): inhibits

SMILES: C[C@H](CCC(=O)NCC(=O)O)[C@H]1CC[C@H]2[C@@H]3[C@H](O)C[C@@H]4C[C@H](O)CC[C@]4(C)[C@H]3CC[C@]12C [glycochenodeoxycholate]
- Maximal inhibition of OSTα/β-mediated DHEAS uptake (OSTα/β [1]; DHEAS 4 µM): less than 50%

- inhibition at 100 µM (OSTα/β [1]; [11]): ~19%
SMILES: C[C@H]1c2cccc(O)c2C(=O)C2=C(O)[C@]3(O)C(=O)C(C(N)=O)=C(O)[C@@H](N(C)C)[C@@H]3[C@@H](O)[C@@H]21 [doxycycline]

SMILES: C#C[C@]1(O)CC[C@H]2[C@@H]3CCc4cc(O)ccc4[C@H]3CC[C@@]21C [ethinylestradiol]
- Interaction with ABCC3 (ABCC3; ref Supporting Table 1): interact
- Interaction with ABCB11 (ABCB11; ref Supporting Table 1): interact
- Associated cases of DILI [3]: more than 100 cases
